Results taken from PMC7961380, “A Systematic Study of the In Vitro Pharmacokinetics and Estimated Human In Vivo Clearance of Indole and Indazole-3-Carboxamide Synthetic Cannabinoid Receptor Agonists Detected on the Illicit Drug Market” (Molecules, 2021).
Values joined by “and” are separate entries in the source; they are usually repeats but may differ in a detail not shown here. Equal values may be shown once. Read-outs that look alike come from different tables or passages of the source.

Experiments:
[1] = test system: pooled human cryopreserved hepatocytes (pHHeps); assay: Metabolic stability, pooled human cryopreserved hepatocyte incubations; settings: for Predicted In Vivo Hepatic Clearance, CLH: from pHHeps CLint, well-stirred model with plasma fu, Q 21 mL min^−1 kg^−1
[2] = as above; settings: human, hepatocytes; for CLint scaled at 0.5 µM: Intrinsic clearance, pHHeps, alternative hepatocyte cell density 99x10^6 hepatocytes per gram liver; for half-life at 0.5 µM: T1/2 (min), pHHeps 0.25 million cells mL^−1, 0.5 µM, 37 °C, n ≥ 3 ± SD
[3] = Short-term plasma stability with and without esterase inhibitors; settings: human, pH 7.4, Parent Compound Remaining (%), 3 h, 37 °C
Procedure: The pooled plasma used for both plasma stability and plasma binding studies originated from 50 donors, collected as whole blood from donors in the United States at an FDA-approved collection center, processed into plasma by centrifugation and immediately frozen (Innovative Research; Novi, MI, USA) and purchased from Patricell (Nottingham, UK). […] Stock solutions were prepared in DMSO. […] For incubations without inhibitor an equivalent volume of DMSO was included. Plasma mixture was pre-incubated at 37 °C for 5 min. Test compounds (5 µM) and procaine (positive control, 50 µM) were added to pre-warmed plasma mixture containing inhibitors. Incubation volume was 1 mL. Samples were mixed and 80 µL was immediately sampled and quenched into 200 µL ACN spiked with donepezil (internal standard (IS), 50 ng mL^−1). […] Peak area ratio of analyte to IS was used to determine half-lives of test compounds in plasma, both with and without the presence of esterase inhibitors.
The human plasma used was pooled from 50 donors, and was collected as whole blood from donors in
the United States at an FDA-approved collection center, processed into plasma by centrifugation and
The stability of the tested SCRAs, select metabolites and procaine control in pooled human plasma over
inhibitors bis(4-nitrophenyl) phosphate (BNPP) and phenyl methyl sulphonyl fluoride (PMSF) is

[4] = Plasma protein binding by equilibrium dialysis; format: in vitro ADME, human; settings: human, pooled human plasma, pH 7.4, equilibrium dialysis 5 h, 37 °C
[5] = Metabolic stability, pooled human liver microsome incubations; settings: for Predicted In Vivo Hepatic Clearance, CLH: from pHLM CLint, well-stirred model with plasma fu, Q 21 mL min^−1 kg^−1; for CLint scaled at 0.5 µM / half-life at 0.5 µM: human, microsomes; for CLint scaled at 0.5 µM: pH 7.4, Intrinsic clearance; for half-life at 0.5 µM: pH 7.4, T1/2 (min), pHLM 0.5 mg mL^−1, 0.5 µM, NADPH, 37 °C; for half-life at 0.5 µM / Microsomal Intrinsic Clearance, CLint micr: n ≥ 3 ± SD
[6] = pHHeps, 99x10^6 hepatocytes per gram liver
[7] = Esterase Inhibitors, pH 7.4, BNPP and PMSF 500 µM each
[8] = plasma, No Esterase Inhibitors, pH 7.4, pooled human plasma
[9] = 10 µg mL^−1, read-out: PPB (%) (converted)
[10] = plasma, read-out: Fraction Unbound (fu)
[11] = pHLM, alternative microsomal scaling factor 32 mg microsomal protein per gram liver
[12] = pHLM, alternative microsomal scaling factor 45 mg microsomal protein per gram liver
[13] = pHLM, scaling factor 32 mg microsomal protein per gram liver
[14] = pHLM, scaling factor 45 mg microsomal protein per gram liver

| SMILES | % parent compound remaining, Average ([1]; pHHeps, 3 min) [%] | % parent compound remaining, Average ([1]; pHHeps, 6 min) [%] | % parent compound remaining, Average ([1]; pHHeps, 9 min) [%] | % parent compound remaining, Average ([1]; pHHeps, 15 min) [%] | % parent compound remaining, Average ([1]; pHHeps, 30 min) [%] | % parent compound remaining, Average ([1]; pHHeps, 45 min) [%] | % parent compound remaining, Average ([1]; pHHeps, 60 min) [%] | CLint scaled at 0.5 µM [2] [mL/min/kg] | half-life at 0.5 µM [2] [min] | remaining at 3 h, 5 µM [3, 7] [%] | remaining at 3 h, 5 µM [3, 8] [%] | fraction unbound at 5 h, 10 µg mL^−1 [4, 9] | fraction unbound at 5 h, 10 µg mL^−1 [4, 10] | CLint scaled at 0.5 µM [5, 11] [mL/min/kg] | CLint scaled at 0.5 µM [5, 12] [mL/min/kg] | half-life at 0.5 µM [5] [min] | % parent compound remaining, Average ([5]; pHLM, 3 min) [%] | % parent compound remaining, Average ([5]; pHLM, 6 min) [%] | % parent compound remaining, Average ([5]; pHLM, 9 min) [%] | % parent compound remaining, Average ([5]; pHLM, 15 min) [%] | further results |
| --- | --- | --- | --- | --- | --- | --- | --- | --- | --- | --- | --- | --- | --- | --- | --- | --- | --- | --- | --- | --- | --- |
| COC(=O)[C@@H](NC(=O)c1nn(Cc2ccc(F)cc2)c2ccccc12)C(C)(C)C [(S)-MDMB-FUBINACA (6)] | 90.3 | 73.3 | 80.1 | 73.3 | 38.8 | 17.3 | 9.1 | 275 | 26 ± 5 | 91.6 ± 2.2 | 94.2 ± 6.3 | 0.005 | 0.005 ± 0.0008 | 111 | 156 | 11 ± 2.4 | 70.2 | 64.2 | 55.8 | 34.3 | Predicted In Vivo Hepatic Clearance, CLH [1]: 1.39 mL/min/kg and 1.39 ± 0.27 mL/min/kg; Hepatic extraction ratio, EH ([1]; from pHHeps incubations): 0.07 and 0.07 ± 0.013; Hepatic extraction ratio, EH [1, 6]: 0.06 ± 0.012; Predicted in vivo hepatic clearance, CLH [1, 6]: 1.29 ± 0.25 mL/min/kg; Predicted In Vivo Hepatic Clearance, CLH [5]: 0.87 ± 0.18 mL/min/kg; Hepatic extraction ratio, EH ([5]; from pHLM incubations): 0.04 ± 0.009; % parent compound remaining, Average ([5]; pHLM, 30 min): 16.4%; Microsomal Intrinsic Clearance, CLint micr ([5]; pHLM): 0.135 ± 0.030 mL min^−1 mg Microsomal Protein^−1; Hepatic extraction ratio, EH [5, 13]: 0.03 ± 0.006; Predicted in vivo hepatic clearance, CLH [5, 13]: 0.54 ± 0.12 mL/min/kg; Hepatic extraction ratio, EH [5, 14]: 0.04 ± 0.008; Predicted in vivo hepatic clearance, CLH [5, 14]: 0.75 ± 0.16 mL/min/kg |
| COC(=O)[C@@H](NC(=O)c1cn(CCCCCF)c2ccccc12)C(C)(C)C [(S)-5F-MDMB-PICA (3), methyl 2-[1-(5-fluoropentyl)-1H-indole-3-carboxamido]-3,3-dimethylbutanoate] | 96.7 | 91.2 | 90.7 | 77.0 | 57.6 | 42.5 | 30.9 | 188 | 38 ± 4.6 | 99.5 ± 5.8 | 97.3 ± 6.4 | 0.062 | 0.062 ± 0.0007 | 128 | 181 ± 31.6 | 9 ± 1.4 | 63.9 | 56.3 | 49.2 | 32.1 | Predicted In Vivo Hepatic Clearance, CLH [1]: 7.87 ± 0.58 mL/min/kg; Hepatic extraction ratio, EH ([1]; from pHHeps incubations): 0.37 ± 0.027; Hepatic extraction ratio, EH [1, 6]: 0.36 ± 0.027; Predicted in vivo hepatic clearance, CLH [1, 6]: 7.49 ± 0.56 mL/min/kg; Predicted In Vivo Hepatic Clearance, CLH [5]: 8.01 ± 0.84 mL/min/kg; Hepatic extraction ratio, EH ([5]; from pHLM incubations): 0.38 ± 0.04; % parent compound remaining, Average ([5]; pHLM, 30 min): 12.8%; Microsomal Intrinsic Clearance, CLint micr ([5]; pHLM): 0.156 ± 0.027 mL min^−1 mg Microsomal Protein^−1; Hepatic extraction ratio, EH [5, 13]: 0.27 ± 0.034; Predicted in vivo hepatic clearance, CLH [5, 13]: 5.75 mL/min/kg; Hepatic extraction ratio, EH [5, 14]: 0.35 ± 0.038; Predicted in vivo hepatic clearance, CLH [5, 14]: 7.27 ± 0.81 mL/min/kg |
| COC(=O)[C@@H](NC(=O)c1nn(CCCCCF)c2ccccc12)C(C)C [(S)-5F-AMB-PINACA (10), methyl [1-(5-fluoropentyl)-1H-indazole-3-carbonyl]valinate] | 60.1 | 23.2 | 11.4 | 3.0 | 0.3 | 0.1 | 0.2 | 2220 ± 115 | 3.2 ± 0.16 | 89.8 ± 1.5 | 93 ± 6.1 | 0.058 | 0.058 ± 0.0008 | 1230 | 1730 ± 133 | 0.9 ± 0.07 | 10.6 | 1.8 | 0.0 | 0.0 | Predicted In Vivo Hepatic Clearance, CLH [1]: 18.25 mL/min/kg and 18.25 ± 0.12 mL/min/kg; Hepatic extraction ratio, EH ([1]; from pHHeps incubations): 0.87 and 0.87 ± 0.006; Hepatic extraction ratio, EH [1, 6]: 0.86 ± 0.006; Predicted in vivo hepatic clearance, CLH [1, 6]: 18.06 ± 0.13 mL/min/kg; Predicted In Vivo Hepatic Clearance, CLH [5]: 17.79 mL/min/kg and 17.79 ± 0.20 mL/min/kg; Hepatic extraction ratio, EH ([5]; from pHLM incubations): 0.85 and 0.85 ± 0.010; % parent compound remaining, Average ([5]; pHLM, 30 min): 0.0%; Microsomal Intrinsic Clearance, CLint micr ([5]; pHLM): 1.494 ± 0.115 mL min^−1 mg Microsomal Protein^−1; Hepatic extraction ratio, EH [5, 13]: 0.77 ± 0.013; Predicted in vivo hepatic clearance, CLH [5, 13]: 16.21 mL/min/kg; Hepatic extraction ratio, EH [5, 14]: 0.83 ± 0.011; Predicted in vivo hepatic clearance, CLH [5, 14]: 17.35 ± 0.22 mL/min/kg |
| COC(=O)[C@H](NC(=O)c1nn(Cc2ccc(F)cc2)c2ccccc12)C(C)(C)C [(R)-MDMB-FUBINACA (6)] | 93.0 | 82.9 | 77.6 | 70.2 | 53.1 | 57.7 | 41.1 | 221 | 32 ± 5.4 | – | – | – | – | 58.2 | 81.8 ± 10.5 | 20 ± 2.5 | 77.3 | 75.0 | 70.2 | 57.2 | % parent compound remaining, Average ([5]; pHLM, 30 min): 33.3%; Microsomal Intrinsic Clearance, CLint micr ([5]; pHLM): 0.071 ± 0.009 mL min^−1 mg Microsomal Protein^−1 |
| CC(C)[C@H](NC(=O)c1nn(CC2CCCCC2)c2ccccc12)C(N)=O [(S)-AB-[…] (11), N-[1-amino-3-methyl-1-oxobutan-2-yl]-1-(cyclohexylmethyl)-1H-indazole-3-carboxamide] | – | – | – | – | – | – | – | 194 | 39 ± 8.8 | 97.9 ± 7 | 98.2 ± 7.2 | 0.028 | 0.028 ± 0.0219 | 42.1 | 59.2 | 27 ± 2.9 | – | – | – | – | – |
